{
  "source": "paper PMC9791655",
  "about": "(Journal of Medicinal Chemistry, 2022)",
  "key": {"[1]": {"assay": "Metabolite identification assay, hepatocyte incubation", "type": "in vitro ADME, rat"}, "CYP1A2 [2]": {"biological_target": "T1, CYP1A2 (Homo sapiens, UniProt P05177)", "T1 sequence (P05177 1-516)": "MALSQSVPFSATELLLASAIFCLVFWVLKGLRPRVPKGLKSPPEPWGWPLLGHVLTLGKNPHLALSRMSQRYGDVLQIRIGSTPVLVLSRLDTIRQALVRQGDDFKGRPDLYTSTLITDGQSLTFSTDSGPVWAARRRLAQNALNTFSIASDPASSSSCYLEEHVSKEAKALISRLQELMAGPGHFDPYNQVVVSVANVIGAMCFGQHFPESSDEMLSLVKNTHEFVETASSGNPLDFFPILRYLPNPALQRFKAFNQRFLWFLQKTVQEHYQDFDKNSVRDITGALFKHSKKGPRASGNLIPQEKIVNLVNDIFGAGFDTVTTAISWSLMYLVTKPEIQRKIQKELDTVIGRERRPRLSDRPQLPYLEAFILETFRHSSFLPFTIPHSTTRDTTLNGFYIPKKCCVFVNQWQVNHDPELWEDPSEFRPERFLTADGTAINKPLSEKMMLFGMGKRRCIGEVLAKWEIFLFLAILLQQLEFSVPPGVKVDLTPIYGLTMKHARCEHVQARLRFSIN", "settings": "at 20 μM"}, "PDE7B": {"tested_on": "PDE7B", "assay": "PDE selectivity profiling", "type": "biochemical, human"}, "hERG": {"biological_target": "hERG (Homo sapiens, UniProt Q12809)", "sequence (Q12809 whole entry)": "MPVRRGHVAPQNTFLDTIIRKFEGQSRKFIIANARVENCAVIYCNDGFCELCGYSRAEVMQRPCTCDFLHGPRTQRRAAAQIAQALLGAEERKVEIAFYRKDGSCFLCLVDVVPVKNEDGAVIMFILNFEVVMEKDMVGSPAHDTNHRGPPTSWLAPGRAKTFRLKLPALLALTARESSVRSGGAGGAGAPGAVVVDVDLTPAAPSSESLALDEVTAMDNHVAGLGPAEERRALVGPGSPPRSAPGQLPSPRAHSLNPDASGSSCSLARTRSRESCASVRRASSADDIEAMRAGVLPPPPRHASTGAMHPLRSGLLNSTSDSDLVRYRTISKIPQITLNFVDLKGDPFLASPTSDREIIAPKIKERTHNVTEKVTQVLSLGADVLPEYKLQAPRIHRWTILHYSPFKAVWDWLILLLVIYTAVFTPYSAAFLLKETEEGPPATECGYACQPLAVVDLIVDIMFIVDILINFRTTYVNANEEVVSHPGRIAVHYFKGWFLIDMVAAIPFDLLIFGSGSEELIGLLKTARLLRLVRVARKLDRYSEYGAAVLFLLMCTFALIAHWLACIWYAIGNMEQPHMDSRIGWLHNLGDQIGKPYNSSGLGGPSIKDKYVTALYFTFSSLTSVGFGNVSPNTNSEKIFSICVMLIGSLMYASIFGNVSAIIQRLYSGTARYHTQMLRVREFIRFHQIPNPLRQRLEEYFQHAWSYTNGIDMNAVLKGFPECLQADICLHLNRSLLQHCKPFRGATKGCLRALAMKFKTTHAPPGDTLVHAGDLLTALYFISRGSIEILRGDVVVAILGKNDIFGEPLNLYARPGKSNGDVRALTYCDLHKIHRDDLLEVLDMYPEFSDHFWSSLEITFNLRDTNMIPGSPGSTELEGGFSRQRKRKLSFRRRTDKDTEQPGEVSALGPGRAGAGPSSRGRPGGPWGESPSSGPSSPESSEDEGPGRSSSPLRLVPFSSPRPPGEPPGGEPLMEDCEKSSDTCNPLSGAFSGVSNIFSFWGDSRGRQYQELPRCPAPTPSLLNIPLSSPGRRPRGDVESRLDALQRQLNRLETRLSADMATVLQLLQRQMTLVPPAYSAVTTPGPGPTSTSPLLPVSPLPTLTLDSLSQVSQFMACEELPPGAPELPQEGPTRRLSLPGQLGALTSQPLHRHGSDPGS", "assay": "Cardiac ion channel inhibition"}, "CYP3A4": {"biological_target": "CYP3A4 (Homo sapiens, UniProt P08684)", "sequence (P08684 whole entry)": "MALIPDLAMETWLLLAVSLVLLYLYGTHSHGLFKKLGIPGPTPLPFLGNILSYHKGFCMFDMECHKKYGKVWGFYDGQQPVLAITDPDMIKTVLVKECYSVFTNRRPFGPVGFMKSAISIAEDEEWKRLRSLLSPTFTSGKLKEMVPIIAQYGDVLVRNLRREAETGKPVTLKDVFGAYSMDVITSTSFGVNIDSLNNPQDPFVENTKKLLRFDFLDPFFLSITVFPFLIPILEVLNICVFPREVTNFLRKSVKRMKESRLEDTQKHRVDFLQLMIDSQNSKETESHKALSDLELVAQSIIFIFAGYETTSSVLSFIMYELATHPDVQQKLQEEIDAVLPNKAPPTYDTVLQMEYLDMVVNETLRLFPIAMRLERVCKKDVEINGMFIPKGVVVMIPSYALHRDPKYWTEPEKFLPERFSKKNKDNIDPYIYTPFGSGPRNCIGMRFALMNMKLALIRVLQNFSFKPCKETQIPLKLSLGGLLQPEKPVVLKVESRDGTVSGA", "assay": "CYP inhibition assay", "settings": "at 20 μM"}, "Pharmacokinetics in dogs": {"assay": "Pharmacokinetics in dogs", "type": "in vivo", "settings": "dog, blood, iv, 0.3 mg/kg"}, "CYP3A4 mRNA": {"tested_on": "CYP3A4 mRNA", "assay": "CYP induction potential in human hepatocytes", "type": "in vitro ADME"}, "CYP1A2 [3]": {"tested_on": "CYP1A2", "type": "in vitro ADME", "settings": "human hepatocytes"}, "rat PDE9A": {"biological_target": "T2, rat PDE9A (Rattus norvegicus, UniProt Q8QZV1)", "T2 sequence (Q8QZV1 1-534)": "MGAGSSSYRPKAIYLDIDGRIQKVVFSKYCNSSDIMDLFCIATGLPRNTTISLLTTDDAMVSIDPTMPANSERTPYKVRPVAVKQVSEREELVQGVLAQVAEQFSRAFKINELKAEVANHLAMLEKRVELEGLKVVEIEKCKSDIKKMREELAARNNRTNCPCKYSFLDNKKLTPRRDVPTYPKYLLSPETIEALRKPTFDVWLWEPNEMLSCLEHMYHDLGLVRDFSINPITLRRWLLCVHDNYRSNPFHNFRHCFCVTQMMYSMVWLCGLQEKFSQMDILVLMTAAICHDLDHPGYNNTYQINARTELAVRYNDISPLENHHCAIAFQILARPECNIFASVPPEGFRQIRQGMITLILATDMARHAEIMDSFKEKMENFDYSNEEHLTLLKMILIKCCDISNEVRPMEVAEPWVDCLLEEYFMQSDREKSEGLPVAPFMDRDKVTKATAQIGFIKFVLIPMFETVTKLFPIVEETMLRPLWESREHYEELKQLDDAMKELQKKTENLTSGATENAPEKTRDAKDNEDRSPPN", "assay": "PDE9A scintillation proximity assay, rat enzyme", "type": "biochemical"}, "CYP2C8": {"biological_target": "T3, CYP2C8 (Homo sapiens, UniProt P10632)", "T3 sequence (P10632 1-490)": "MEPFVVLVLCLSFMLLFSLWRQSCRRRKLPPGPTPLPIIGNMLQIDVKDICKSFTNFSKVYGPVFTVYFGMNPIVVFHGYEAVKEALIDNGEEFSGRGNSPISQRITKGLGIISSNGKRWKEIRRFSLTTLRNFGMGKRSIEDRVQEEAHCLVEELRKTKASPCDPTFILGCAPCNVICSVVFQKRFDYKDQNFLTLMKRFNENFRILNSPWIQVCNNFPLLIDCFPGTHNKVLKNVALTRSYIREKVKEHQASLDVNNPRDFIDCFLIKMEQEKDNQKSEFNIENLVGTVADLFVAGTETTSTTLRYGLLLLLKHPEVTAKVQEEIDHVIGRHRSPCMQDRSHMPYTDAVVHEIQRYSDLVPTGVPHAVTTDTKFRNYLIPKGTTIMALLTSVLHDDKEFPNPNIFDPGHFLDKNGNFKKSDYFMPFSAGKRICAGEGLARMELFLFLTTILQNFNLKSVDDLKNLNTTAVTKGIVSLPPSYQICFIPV", "assay": "CYP inhibition assay", "settings": "at 20 μM"}, "75 off-targets (Panlabs)": {"tested_on": "75 off-targets (Panlabs)", "assay": "Panlabs off-target profile"}, "PDE10A": {"tested_on": "PDE10A", "assay": "PDE selectivity profiling", "type": "biochemical, human"}, "[4]": {"assay": "Radiotelemetric measurement of blood pressure in rats", "settings": "telemetric rats, within 24 h"}, "urinary cGMP": {"tested_on": "urinary cGMP", "assay": "Urinary cGMP assay in rats", "type": "in vivo, rat", "settings": "40 mg/kg"}, "PDE3B": {"tested_on": "PDE3B", "assay": "PDE selectivity profiling", "type": "biochemical, human"}, "mouse PDE9A": {"biological_target": "T4, mouse PDE9A (Mus musculus, UniProt O70628)", "T4 sequence (O70628 1-534)": "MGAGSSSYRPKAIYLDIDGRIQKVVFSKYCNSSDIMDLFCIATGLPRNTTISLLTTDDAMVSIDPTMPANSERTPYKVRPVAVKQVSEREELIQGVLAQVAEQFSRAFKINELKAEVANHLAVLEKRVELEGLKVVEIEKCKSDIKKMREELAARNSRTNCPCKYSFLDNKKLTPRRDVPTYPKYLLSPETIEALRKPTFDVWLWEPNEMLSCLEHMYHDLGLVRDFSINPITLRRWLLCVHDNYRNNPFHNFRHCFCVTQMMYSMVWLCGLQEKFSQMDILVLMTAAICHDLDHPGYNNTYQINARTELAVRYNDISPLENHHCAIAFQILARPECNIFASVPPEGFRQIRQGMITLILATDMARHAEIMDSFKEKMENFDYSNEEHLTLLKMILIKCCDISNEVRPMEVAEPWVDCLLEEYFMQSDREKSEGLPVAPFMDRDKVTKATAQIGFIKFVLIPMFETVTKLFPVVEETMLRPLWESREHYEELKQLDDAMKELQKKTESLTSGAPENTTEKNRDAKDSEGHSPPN", "assay": "PDE9A scintillation proximity assay, mouse enzyme", "type": "biochemical"}, "Nav1.5": {"biological_target": "Nav1.5 (Homo sapiens, UniProt Q14524)", "sequence (Q14524 whole entry)": "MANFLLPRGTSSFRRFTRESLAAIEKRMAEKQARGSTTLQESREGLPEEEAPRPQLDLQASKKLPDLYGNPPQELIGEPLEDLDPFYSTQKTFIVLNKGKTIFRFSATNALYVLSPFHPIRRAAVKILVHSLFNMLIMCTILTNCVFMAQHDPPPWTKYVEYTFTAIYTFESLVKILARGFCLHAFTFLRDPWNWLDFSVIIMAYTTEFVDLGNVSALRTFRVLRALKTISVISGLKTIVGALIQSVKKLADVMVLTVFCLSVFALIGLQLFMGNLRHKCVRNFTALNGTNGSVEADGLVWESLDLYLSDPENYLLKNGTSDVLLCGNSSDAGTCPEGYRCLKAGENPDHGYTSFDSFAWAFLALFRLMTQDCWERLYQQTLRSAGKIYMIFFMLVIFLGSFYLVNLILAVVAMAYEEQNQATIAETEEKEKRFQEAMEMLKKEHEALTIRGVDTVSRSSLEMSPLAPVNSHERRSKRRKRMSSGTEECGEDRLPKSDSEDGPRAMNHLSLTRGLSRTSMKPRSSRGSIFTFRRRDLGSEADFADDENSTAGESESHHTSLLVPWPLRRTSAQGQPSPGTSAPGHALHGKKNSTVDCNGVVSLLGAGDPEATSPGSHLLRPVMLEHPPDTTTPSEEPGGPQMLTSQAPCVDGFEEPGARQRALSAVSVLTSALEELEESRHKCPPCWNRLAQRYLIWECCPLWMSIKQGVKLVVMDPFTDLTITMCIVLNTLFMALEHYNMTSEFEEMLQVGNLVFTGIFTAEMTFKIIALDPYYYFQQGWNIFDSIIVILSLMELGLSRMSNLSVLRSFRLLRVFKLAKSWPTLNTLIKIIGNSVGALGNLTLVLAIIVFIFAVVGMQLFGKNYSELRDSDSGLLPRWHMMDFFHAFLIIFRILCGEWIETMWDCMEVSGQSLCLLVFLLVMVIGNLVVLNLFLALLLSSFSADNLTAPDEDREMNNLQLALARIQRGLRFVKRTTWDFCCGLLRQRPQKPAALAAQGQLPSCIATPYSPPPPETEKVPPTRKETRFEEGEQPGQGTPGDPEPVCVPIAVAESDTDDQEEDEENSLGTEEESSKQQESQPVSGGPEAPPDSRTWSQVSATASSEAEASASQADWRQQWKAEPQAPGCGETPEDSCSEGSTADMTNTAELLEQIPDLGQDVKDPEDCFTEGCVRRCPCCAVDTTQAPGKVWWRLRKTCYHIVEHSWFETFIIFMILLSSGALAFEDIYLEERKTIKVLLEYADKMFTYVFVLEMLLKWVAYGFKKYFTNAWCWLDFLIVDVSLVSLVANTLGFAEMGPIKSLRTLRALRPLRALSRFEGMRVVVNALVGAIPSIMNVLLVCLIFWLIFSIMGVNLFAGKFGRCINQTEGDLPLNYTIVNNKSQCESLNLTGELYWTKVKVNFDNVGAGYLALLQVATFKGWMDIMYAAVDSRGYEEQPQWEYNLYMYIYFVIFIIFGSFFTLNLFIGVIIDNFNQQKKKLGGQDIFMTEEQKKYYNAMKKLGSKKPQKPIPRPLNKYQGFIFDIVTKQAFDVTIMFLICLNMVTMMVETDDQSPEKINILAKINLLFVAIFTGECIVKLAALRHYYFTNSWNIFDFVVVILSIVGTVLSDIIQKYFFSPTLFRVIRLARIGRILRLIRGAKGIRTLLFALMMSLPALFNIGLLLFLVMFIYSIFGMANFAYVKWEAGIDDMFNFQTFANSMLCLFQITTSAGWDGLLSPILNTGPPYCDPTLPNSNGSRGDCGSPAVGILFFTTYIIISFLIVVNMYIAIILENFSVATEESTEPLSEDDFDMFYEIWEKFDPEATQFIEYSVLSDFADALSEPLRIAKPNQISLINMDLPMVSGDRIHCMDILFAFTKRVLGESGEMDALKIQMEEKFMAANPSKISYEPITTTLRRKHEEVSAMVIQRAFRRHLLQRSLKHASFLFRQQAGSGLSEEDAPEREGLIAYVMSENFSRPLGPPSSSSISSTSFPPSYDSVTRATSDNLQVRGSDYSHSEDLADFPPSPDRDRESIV", "assay": "Cardiac ion channel inhibition"}, "CYP2D6": {"biological_target": "CYP2D6 (Homo sapiens, UniProt P10635)", "sequence (P10635 whole entry)": "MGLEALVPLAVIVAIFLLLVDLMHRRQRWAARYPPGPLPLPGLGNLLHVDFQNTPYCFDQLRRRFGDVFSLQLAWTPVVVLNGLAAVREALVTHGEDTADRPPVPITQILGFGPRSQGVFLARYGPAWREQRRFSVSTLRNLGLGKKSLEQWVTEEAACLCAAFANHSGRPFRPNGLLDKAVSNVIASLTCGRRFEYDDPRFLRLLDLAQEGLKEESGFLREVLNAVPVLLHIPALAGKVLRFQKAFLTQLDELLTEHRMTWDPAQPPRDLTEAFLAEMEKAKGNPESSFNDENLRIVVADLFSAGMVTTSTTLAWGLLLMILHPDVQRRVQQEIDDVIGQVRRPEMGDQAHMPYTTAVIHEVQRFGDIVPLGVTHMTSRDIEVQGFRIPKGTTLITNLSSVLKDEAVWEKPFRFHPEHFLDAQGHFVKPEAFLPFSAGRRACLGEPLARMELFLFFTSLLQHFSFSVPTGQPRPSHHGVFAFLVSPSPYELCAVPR", "assay": "CYP inhibition assay", "settings": "at 20 μM"}, "[5]": {"assay": "Metabolite identification assay, hepatocyte incubation", "type": "in vitro ADME, human"}, "human PDE9A": {"biological_target": "human PDE9A (Homo sapiens, UniProt O76083)", "sequence (O76083 whole entry)": "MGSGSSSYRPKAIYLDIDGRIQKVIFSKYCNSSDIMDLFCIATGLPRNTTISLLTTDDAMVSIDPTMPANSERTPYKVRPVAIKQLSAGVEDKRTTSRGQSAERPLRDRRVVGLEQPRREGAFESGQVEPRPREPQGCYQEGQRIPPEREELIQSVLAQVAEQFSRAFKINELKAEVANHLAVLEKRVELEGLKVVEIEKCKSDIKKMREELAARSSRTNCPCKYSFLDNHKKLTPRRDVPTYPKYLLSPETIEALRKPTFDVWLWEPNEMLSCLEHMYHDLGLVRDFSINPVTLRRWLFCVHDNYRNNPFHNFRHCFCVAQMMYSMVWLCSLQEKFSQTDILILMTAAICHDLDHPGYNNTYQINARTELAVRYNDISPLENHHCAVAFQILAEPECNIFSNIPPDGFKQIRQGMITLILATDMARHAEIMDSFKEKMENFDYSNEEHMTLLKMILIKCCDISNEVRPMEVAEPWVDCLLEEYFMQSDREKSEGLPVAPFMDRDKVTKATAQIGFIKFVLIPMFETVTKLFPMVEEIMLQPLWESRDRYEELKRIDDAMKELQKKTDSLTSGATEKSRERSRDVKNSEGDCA", "assay": "PDE9A scintillation proximity assay with 3H-cGMP", "type": "biochemical"}, "PDE2A": {"tested_on": "PDE2A", "assay": "PDE selectivity profiling", "type": "biochemical, human"}, "[6]": {"assay": "Transverse aortic constriction", "type": "in vivo", "settings": "mouse TAC"}, "[7]": {"settings": "10 mg/kg twice daily for 5 weeks"}, "[8]": {"settings": "twice daily oral 10 or 50 mg/kg"}},
  "note": "pIC50: −log10 of the molar value.",
  "data": [
    {"smiles": "CCCC1CNCc2c1[nH]c(=O)c(C#N)c2N1CCC2(CC1)CC2.Cl", "note": "(single isomer, unassigned; ent-4) [Compound 30, ent-4-(6-Azaspiro[2.5]octan-6-yl)-2-oxo-8-propyl-1,2,5,6,7,8-hexahydro-1,6-naphthyridine-3-carbonitrile Hydrochloride]", "values": [
      {"measurement": "reactive metabolites after incubation with rat hepatocytes", "setting": "[1]", "value": "no reactive metabolites were formed"},
      {"measurement": "genotoxicity in Ames test", "setting": "Ames test", "value": "No genotoxicity"},
      {"measurement": "inhibition of CYP1A2", "setting": "CYP1A2 [2]", "value": "No inhibition"},
      {"measurement": "PDE7B selectivity factor (PDE#-IC50/PDE9A-IC50)", "setting": "PDE7B", "value": ">650", "unit": "x"},
      {"measurement": "inhibition of cardiac ion channel hERG", "setting": "hERG", "value": "clean profile"},
      {"measurement": "inhibition of CYP3A4", "setting": "CYP3A4", "value": "No inhibition"},
      {"measurement": "clearance", "setting": "Pharmacokinetics in dogs", "value": 15, "unit": "mL/min/kg"},
      {"measurement": "concentrations at which CYP3A4 mRNA was induced", "setting": "CYP3A4 mRNA", "value": "above 9.2 μM"},
      {"measurement": "CYP1A2 induction", "setting": "CYP1A2 [3]", "value": "no induction"},
      {"measurement": "pIC50", "setting": "rat PDE9A", "value": 7.38},
      {"measurement": "inhibition of CYP2C8", "setting": "CYP2C8", "value": "No inhibition"},
      {"measurement": "inhibition of 75 off-targets (Panlabs)", "setting": "75 off-targets (Panlabs)", "value": "clean profile"},
      {"measurement": "PDE10A selectivity factor (PDE#-IC50/PDE9A-IC50)", "setting": "PDE10A", "value": ">650", "unit": "x"},
      {"measurement": "effects on blood pressure", "setting": "[4]; once daily oral 5 or 40 mg/kg", "value": "no significant effects"},
      {"measurement": "effects on heart rate", "setting": "[4]; once daily oral 5 or 40 mg/kg", "value": "no significant effects"},
      {"measurement": "urinary cGMP versus vehicle", "setting": "urinary cGMP", "value": "nonsignificant trend toward higher cGMP levels"},
      {"measurement": "PDE3B selectivity factor (PDE#-IC50/PDE9A-IC50)", "setting": "PDE3B", "value": ">650", "unit": "x"},
      {"measurement": "pIC50", "setting": "mouse PDE9A", "value": 7.47},
      {"measurement": "inhibition of cardiac ion channel Nav1.5", "setting": "Nav1.5", "value": "clean profile"},
      {"measurement": "inhibition of CYP2D6", "setting": "CYP2D6", "value": "No inhibition"},
      {"measurement": "reactive metabolites after incubation with human hepatocytes", "setting": "[5]", "value": "no reactive metabolites were formed"},
      {"measurement": "degradation in the presence of human hepatocytes", "setting": "[5]; after 4 h of incubation", "value": "almost no degradation"},
      {"measurement": "BEI binding efficiency index −log (IC50)/MW × 1000", "setting": "human PDE9A", "value": 23.9},
      {"measurement": "PDE2A selectivity factor (PDE#-IC50/PDE9A-IC50)", "setting": "PDE2A", "value": ">650", "unit": "x"}
    ]},
    {"smiles": "C[C@@H]1CN(Cc2ncccn2)C[C@H]1c1nc2c(cnn2C2CCOCC2)c(=O)[nH]1", "note": "[PF-04447943, 6-[(3S,4S)-4-Methyl-1-(pyrimidin-2-ylmethyl)pyrrolidin-3-yl]-1-(tetrahydro-2H-pyran-4-yl)-1,5-dihydro-4H-pyrazolo[3,4-d]pyrimidin-4-one, reference compound]", "values": [
      {"measurement": "minimal diastolic left ventricular pressure (LVPmin)", "setting": "[6]; 10 mg/kg bid for five weeks, 10 mg/kg", "value": "reduction"},
      {"measurement": "heart function (LVEDP, Tau)", "setting": "[6]; [7]", "value": "trend for improvement"},
      {"measurement": "hypertrophy of the left atrium", "setting": "[6]; [7]", "value": "statistically significant reduction"},
      {"measurement": "clearance", "setting": "Pharmacokinetics in dogs", "value": 8.33, "unit": "mL/min/kg"},
      {"measurement": "effects on blood pressure", "setting": "[4]; [8]", "value": "no significant effects"},
      {"measurement": "effects on heart rate", "setting": "[4]; [8]", "value": "no significant effects"}
    ]}
  ]
}
